Results from patent publication US20230172920A1, “DOSING REGIMEN FOR TREATING A DISEASE MODULATED BY CSF-1R” (Novartis AG, priority 2020, published 2023).

Legend:
[1] = Phase I/II first-in-human study CBLZ945X2101: adverse events; format: in vivo
Description: The purpose of this first-in-human (FIH) study of BLZ945 given as a single agent or in combination with spartalizumab is to characterize the safety, tolerability, pharmacokinetics (PK), pharmacodynamics, and anti-tumor activity of BLZ945, administered orally, as a single agent or in combination with spartalizumab, administered intravenously (i.v.) in adult patients with advanced solid tumors.
This study is a FIH, open-label, multi-center, phase I/II, study which consists of a phase I dose escalation part of BLZ945 as single agent (including a separate Japanese BLZ945 single agent dose escalation arm) and in combination with spartalizumab. Alternative dosing regimens of BLZ945 may be evaluated. BLZ945 is being administered orally, and spartalizumab is being administered i.v. every four weeks until patient experiences unacceptable toxicity, progressive disease and/or treatment is discontinued at the discretion of the Investigator or the patient.
BLZ945 dosing is being evaluated on the following schedules, 7 days on/7 days off (i.e., administer BLZ945 every day for 7 days and suspend for 7 days), once weekly (Q1W), and 4 days on/10 days off (i.e., administer BLZ945 every day for 4 days and suspend for 10 days). For each of these schedules, once per day (OD) or twice per day (BID) dosing may be evaluated. For once daily administration, patients should take their dose at approximately the same time in the morning. For the twice a day dosing, the first dose should be taken in the morning and the second dose should be taken approximately 10 to 12 hours after the morning dose.
All patients treated with either BLZ945 single agent or in combination with spartalizumab will begin study treatment on Cycle 1 Day 1. Each cycle will consist of 28 days. […]
As mentioned above, nausea, vomiting have been commonly observed to occur with single-agent administration of BLZ945 in the first-in-human trial (CBLZ945X2101). […] An additional cohort to evaluate 7 days on may also be evaluated.

[2] = test system: MC38 syngeneic mouse model; assay: MC38 syngeneic mouse model, tumor growth; format: in vivo, C57BL/6N mice; conditions: repeat with suboptimal anti-PD-1 dose (5 mg/kg); BLZ945 4 days on/3 days off
Experimental: In another set of experiments using the MC38 syngeneic mouse model in C57BL/6N mice two different schedules of BLZ945 were compared for efficacy (FIG. 3) using once weekly dosing of BLZ945 and 4 days on/3 days off dosing of BLZ945 alone and in combination with anti-PD-1. […] On day 14 post treatment start, there was a trend of tumor growth inhibition, corresponding to a % T/C vs. control of 28%.
Doses of 200 mg/kg BLZ945 and 10 mg/kg anti-PD-1 were given on the schedules indicated and tumor volumes measured on day 14 after study initiation. Statistical significance was calculated using one-way ANOVA with post hoc Dunnett's test for comparison of treatment versus control group.
Efficacy testing was repeated with a suboptimal dose of anti-PD-1 (5 mg/kg) in order to test for an additive effect of BLZ945 to be observed when given in combination.

microglia = assay: Microglia depletion in lumbar spinal cord, Iba1 qPCR, 8-week SOD1G93A efficacy study (RD-2019-00092); format: in vivo, SOD1G93A mouse; conditions: for microglia depleted (lumbar spinal cord): 8 weeks
Experimental: (§1) BLZ945 was dosed over an 8-week period in a mouse model of ALS (in house data). BLZ945 was tested for efficacy in preventing or delaying disease progression in the SOD1G93A ALS mouse (RD-2019-00092). […] Normal body weight gain is also impaired in this model. These physiological impairments are considered as mechanistic readouts given that they best recapitulate the clinical disease phenotype (Turner et al 2013). Animals were dosed from 8 to 16 weeks of age with daily (q.d) doses of BLZ945 at either 65 mg/kg, 170 mg/kg, or 170 mg/kg delivered intermittently with a 7 day ON/7 day OFF regimen.
Microglia were depleted by greater than 90% with the high dose (170 mg/kg) of BLZ945 and by about 50% with the low dose (65 mg/kg). […] Blood and CNS exposure to BLZ945 were measured at 3 hours post-dose on the day of necropsy (Table 8). BLZ945 spinal cord exposure ratios (relative to blood) were consistent across dose groups at approximately 0.4 (Table 9).
FIG. 11: Microglia depletion in the lumbar spinal cord, assessed by Iba1 transcript expression by qPCR. Samples were collected at necropsy on the final day of dosing of the eight-week study. Values are group means±SD (n=12-15). Data are presented as fold changes in comparison to the SOD1 vehicle-treated group. Statistical analyses were by Kruskal-Wallis test with Dunn's multiple comparison

SOD1G93A ALS mouse = assay: Body weight, grip strength and CMAP in the SOD1G93A ALS mouse, 8-week study (RD-2019-00092); format: in vivo
Experimental: as §1
FIG. 12: The effect of BLZ945 on body weight change over the eight-week study period. Data are presented as the percentage of body weight change relative to the first dosing day. Values are group means ([…]). Statistical analysis was by mixed linear effect model for repeated measures. * p<0.05; ** p<0.01; **** p<0.0001.
Hind limb grip strength and compound muscle action potentials (CMAP), an assessment of neuromuscular integrity, were measured as mechanistic readouts. In grip strength measurements, SOD1 G93A mice lost muscle force continuously after the 8th week of age. […] This was intermediate to the vehicle-treated SOD1 G93A and NCAR controls (FIG. 13 A). […] However, CMAPs were still lower than those of NCAR animals from study week 4 onward.
FIG. 13: (A) The effect of BLZ945 on grip strength over the eight-week study period. Values are group means±SD (n=12-15). Statistical analysis was by mixed linear effect model for repeated measures. * p<0.05; ** p<0.01; *** p<0.001. (B) The effect of BLZ945 on TA muscle CMAP over the eight-week study period. Values are group means±SD (n=12-15). Statistical analysis was by mixed linear effect model for repeated measures. * […]; ** p<0.01; *** p<0.001.

SMILES: CNC(=O)c1cc(Oc2ccc3nc(N[C@@H]4CCCC[C@H]4O)sc3c2)ccn1 [BLZ945, 4-((2-(((1R,2R)-2-hydroxycyclohexyl)amino)benzo[d]thiazol-6-yl)oxy)-N-methylpicolinamide]
- most frequently reported AEs (>10%) suspected to be related to treatment ([1]; in vivo): aspartate aminotransferase (AST) increased, nausea, vomiting, alanine aminotransferase (ALT) increased, fatigue, amylase increased, blood creatine phosphokinase increased and decreased appetite
- serum enzyme elevation ([1]; in vivo): Asymptomatic serum enzyme elevation including AST, ALT, CK and alkaline phosphatase elevations
- suspected SAEs (grade and kind) ([1]; single agent arm, combination arm): Grade 3 AST increased, Grade 3 asthenia and Grade 4 sudden death
- tumor growth inhibition [2]: not either of the single agent groups dosed with BLZ945 or anti-PD-1 resulted in a statistically significant tumor growth inhibition
- microglia depleted (lumbar spinal cord) (microglia; 65 mg/kg q.d.): about 50%
- microglia recovery compared to high dose animals (microglia; 170 mg/kg 7 day ON/7 day OFF, sacrificed at 7 days off): greater than 50%
- microglia depleted (lumbar spinal cord) (microglia; 170 mg/kg q.d. continuous): greater than 90%
- tibialis anterior muscle CMAP (SOD1G93A ALS mouse; 65 mg/kg): significantly higher CMAPs than untreated controls until week 6
- body weight gain at end of study (SOD1G93A ALS mouse; 65 mg/kg and 170 mg/kg 7 days on/7 days off groups, NCAR approx. 16%, vehicle approx. 7%): approximately 12%
- hind limb grip strength (SOD1G93A ALS mouse; 65 mg/kg, vs vehicle-treated SOD1 G93A controls, up to week 6 of dosing): significantly higher grip strength
- body weight gain (SOD1G93A ALS mouse; 170 mg/kg continuously, 8 weeks): constant weight gain at the same rate as NCAR mice
- tibialis anterior muscle CMAP (SOD1G93A ALS mouse; 170 mg/kg, continuous or intermittent dosing): significantly reduced decline in CMAPs throughout the study period
- hind limb grip strength (SOD1G93A ALS mouse; 170 mg/kg, continuously or intermittently, vs vehicle-treated SOD1 G93A): maintained significantly greater grip force throughout the study period
